In patent US11534441B2, “MAP4K1 inhibitors” (Blueprint Medicines Corporation, priority 2020, dated 2022):

Molecular target: MAP4K1 (HPK1) (Homo sapiens (Human), UniProt Q92918)
Experiment: MAP4K1 (HPK1) biochemical enzymatic activity, electrophoretic mobility shift (EZReader 2), ATP at APPKM (26 μM)
Text: MAP4K1 (HPK1) and relevant off-target enzymatic activity was monitored using the Perkin Elmer electrophoretic mobility shift technology platform—the EZReader 2. […] Within the linear, steady-state phase of the kinase enzymatic reaction, the mixed pool of phosphorylated (product) and non-phosphorylated (substrate) peptides was passed through the microfluidic system of the PerkinElmer EZ Reader 2, under an applied electric potential difference. The presence of the phosphate group on the product peptide provided a difference in mass and charge between that of the substrate peptide, resulting in a separation of the substrate and product pools in the sample (Perrin et al. 2010). As the product and substrate peptide mixture passes the lasers within the instrument, these pools are detected (λex=488 nm, λent=568 nm) and resolved as separate peaks. The ratio between these peaks reflects the activity of the compound at that concentration, in that well, under those conditions.
Inhibitors were dissolved in 100% DMSO at a stock concentration of 10 mM. A 100×, 10-point, 4-fold serial dilution of each inhibitor was created in 100% DMSO either manually or on a Hamilton STAR liquid handler, starting at a relevant concentration, usually 1 mM. A volume of 0.130 μL of each concentration was transferred to the relevant wells of a 384-well plate (Greiner 781 201) in duplicate using a TTPLabtech Mosquito nano-litre dispenser. Using a Multidrop Combi, the remaining constituents of the kinase reaction were added to the 130 nL of dosed compound as follows (see table below for final reaction details):
Enzyme activity assays at the ^APPKM for ATP or 1 mM ATP: In each well of a 384-well plate, 0.1-15 nM of untreated enzyme was incubated in a total of 13 μL of buffer (100 mM HEPES pH 7.5, 0.015% Brij 35, 10 mM MgCl2, 1 mM DTT) with 1.5 μM fluorescent peptid and 20-1000 μM ATP, at 25° C., for 60-180 minutes in the presence or absence of a dosed concentration series of compound (1% DMSO final concentration). The kinase reactions were stopped by the addition of 70 μl of Stop buffer (100 mM HEPES pH 7.5, 0.015% Brij 35, 35 mM EDTA and 0.2% of Coating Reagent 3 (Caliper Lifesciences)). The plates were read on a Caliper EZReader 2 as described above.

Chain of MAP4K1 (HPK1) (Q92918 whole entry): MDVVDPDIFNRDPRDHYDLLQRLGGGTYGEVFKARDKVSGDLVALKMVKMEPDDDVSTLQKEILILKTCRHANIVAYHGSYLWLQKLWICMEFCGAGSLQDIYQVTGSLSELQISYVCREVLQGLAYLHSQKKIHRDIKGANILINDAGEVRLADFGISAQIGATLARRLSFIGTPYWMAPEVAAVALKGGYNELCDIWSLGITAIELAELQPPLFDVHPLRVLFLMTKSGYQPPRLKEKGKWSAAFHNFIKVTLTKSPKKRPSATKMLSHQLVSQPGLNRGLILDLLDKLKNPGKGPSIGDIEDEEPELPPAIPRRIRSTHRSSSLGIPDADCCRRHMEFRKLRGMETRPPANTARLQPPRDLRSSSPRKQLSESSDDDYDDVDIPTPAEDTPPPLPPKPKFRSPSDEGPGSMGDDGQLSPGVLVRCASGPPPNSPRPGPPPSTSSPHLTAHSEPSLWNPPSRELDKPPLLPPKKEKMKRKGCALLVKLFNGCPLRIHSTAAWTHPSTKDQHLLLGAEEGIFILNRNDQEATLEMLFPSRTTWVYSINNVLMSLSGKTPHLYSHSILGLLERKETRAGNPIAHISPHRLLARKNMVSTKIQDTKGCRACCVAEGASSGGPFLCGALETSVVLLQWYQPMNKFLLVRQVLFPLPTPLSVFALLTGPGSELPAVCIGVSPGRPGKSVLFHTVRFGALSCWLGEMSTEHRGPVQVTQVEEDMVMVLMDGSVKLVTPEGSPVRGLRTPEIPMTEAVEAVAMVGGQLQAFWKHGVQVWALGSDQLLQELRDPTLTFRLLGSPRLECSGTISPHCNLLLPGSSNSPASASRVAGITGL

SMILES	IC50 (class designation)	IC50 (numeric value)
C[C@@H]1OC(=O)c2ccc(Nc3cc4c([C@](C)(N)C5CC5)cnc(OC5(C)CC5)c4cn3)nc2[C@H]1C [Compound 89]	1100 to 10000 pM	5120 pM
C[C@@H]1c2nc(Nc3cc4c([C@@](C)(N)C5CC5)cnc(OC5(C)CC5)c4cn3)ccc2C(=O)OC1(C)C [Compound 90]	1100 to 10000 pM	3420 pM
CC[C@@](C)(N)c1cnc(OC2(C)CC2)c2cnc(Nc3ccc4c(n3)[C@@H](C)[C@@H](C)OC4=O)cc12 [Compound 93]	1100 to 10000 pM	3650 pM
C[C@@H]1c2nc(Nc3cc4c([C@@](C)(N)C5CC5)cnc(OC5(C)CC5)c4cn3)ccc2C(=O)O[C@@H]1C [Compound 95]	1100 to 10000 pM	4540 pM
COc1ncc([C@@](C)(N)C2CC2)c2cc(Nc3ccc4c(n3)C(C)(C)OC4=O)ncc12 [Compound 98]	> 10000 pM	19100 pM
CC1(C)Cc2nc(Nc3cc4c(C(C)(C)N)ccc(Cl)c4cn3)ccc2C(=O)O1 [Compound 104, 2-((5-(2-Aminopropan-2-yl)-8-chloroisoquinolin-3-yl)amino)-7,7-dimethyl-7,8-dihydro-5H-pyrano[4,3-b]pyridin-5-one]	< 300 pM	130 pM
CC(C)(N)c1cnc(OC2CC2)c2cnc(Nc3ccc4c(n3)C3(CC3)COC4=O)cc12 [Compound 107]	310 to 1000 pM	620 pM
C[C@H]1OC(=O)c2ccc(Nc3cc4c(C(C)(C)N)cnc(OC5CC5)c4cn3)nc2C12CC2 [Compound 119]	< 300 pM	120 pM
C[C@@H]1OC(=O)c2ccc(Nc3cc4c(C(C)(C)N)cnc(OC5CC5)c4cn3)nc2C12CC2 [Compound 120]	310 to 1000 pM	500 pM
CC[C@](C)(N)c1cnc(NC2CC2)c2cnc(Nc3ccc4c(n3)[C@@H](C)[C@H](C)OC4=O)cc12 [Compound 122]	< 300 pM	160 pM
CC1(C)CCc2nc(Nc3cc4c(C(C)(C)N)cnc(OC5CC5)c4cn3)ccc2C(=O)O1 [Compound 125]	1100 to 10000 pM	1840 pM
CC[C@H]1c2nc(Nc3cc4c(C(C)(C)N)cnc(OC5CC5)c4cn3)ccc2C(=O)O[C@H]1C [Compound 128]	1100 to 10000 pM	1090 pM
CC[C@@](C)(N)c1cnc(OC2CC2)c2cnc(Nc3ccc4c(n3)[C@](C)(CC)OC4=O)cc12 [Compound 129]	< 300 pM	110 pM
CC[C@H]1OC(=O)c2ccc(Nc3cc4c(C(C)(C)N)cnc(OC5CC5)c4cn3)nc2[C@@H]1C [Compound 130]	310 to 1000 pM	460 pM
CC[C@@H]1OC(=O)c2ccc(Nc3cc4c(C(C)(C)N)cnc(OC5CC5)c4cn3)nc2[C@H]1C [Compound 134]	1100 to 10000 pM	1330 pM
C[C@@H]1OC(=O)c2ccc(Nc3cc4c(C(C)(C)N)cnc(OC5CC5)c4cn3)nc2C1(C)C [Compound 137]	310 to 1000 pM	460 pM
CCCOc1ncc([C@](C)(N)CC)c2cc(Nc3ccc4c(n3)[C@@H](C)[C@H](C)OC4=O)ncc12 [Compound 142]	< 300 pM	200 pM
CCCOc1ncc([C@](C)(N)CC)c2cc(Nc3ccc4c(n3)CC(C)(C)OC4=O)ncc12 [Compound 143]	310 to 1000 pM	310 pM
CCCOc1ncc([C@@](C)(N)CC)c2cc(Nc3ccc4c(n3)CC(C)(C)OC4=O)ncc12 [Compound 144]	1100 to 10000 pM	3890 pM
CCCOc1ncc([C@@](C)(N)CC)c2cc(Nc3ccc4c(n3)[C@@H](C)[C@H](C)OC4=O)ncc12 [Compound 145]	1100 to 10000 pM	1770 pM
C[C@@H]1OC(=O)c2ccc(Nc3cc4c([C@](C)(N)C5CC5)cnc(NC5CC5)c4cn3)nc2[C@H]1C [Compound 149]	< 300 pM	200 pM
CC1(Oc2ncc([C@](C)(N)C3CC3)c3cc(Nc4ccc5c(n4)C(C)(C)COC5=O)ncc23)CC1 [Compound 185]	310 to 1000 pM	350 pM

Other lines, results leading:

IC50 (class designation)	IC50 (numeric value)	SMILES
1100 to 10000 pM	5240 pM	C[C@@H]1OC(=O)c2ccc(Nc3cc4c([C@@](C)(N)C5CC5)cnc(NC5CC5)c4cn3)nc2[C@H]1C [Compound 150]
1100 to 10000 pM	6460 pM	COc1ncc(C(C)(C)NC2CCC2)c2cc(Nc3ccc4c(n3)CC(C)(C)OC4=O)ncc12 [Compound 158, 2-((5-(2-(Cyclobutylamino)propan-2-yl)-8-methoxy-2,7-naphthyridin-3-yl)amino)-7,7-dimethyl-7,8-dihydro-5H-pyrano[4,3-b]pyridin-5-one]
1100 to 10000 pM	1250 pM	C[C@@H]1OC(=O)c2ccc(Nc3cc4c(C(C)(C)N)cnc(O[C@@H]5CCOC5)c4cn3)nc2[C@H]1C [Compound 160]
1100 to 10000 pM	1370 pM	C[C@@H]1OC(=O)c2ccc(Nc3cc4c(C(C)(C)N)cnc(O[C@H]5C[C@H](F)C5)c4cn3)nc2[C@H]1C [Compound 161]
< 300 pM	240 pM	C[C@@H]1OC(=O)c2ccc(Nc3cc4c(C(C)(C)N)cnc(OCC5(F)CC5)c4cn3)nc2[C@H]1C [Compound 162]
< 300 pM	250 pM	C[C@@H]1OC(=O)c2ccc(Nc3cc4c(C(C)(C)N)cnc(O[C@H]5C[C@@H](F)C5)c4cn3)nc2[C@H]1C [Compound 163]
1100 to 10000 pM		CC1(C)Cc2nc(Nc3cc4c([C@@](C)(N)C5CCC5)cnc(OC5CC5)c4cn3)ccc2C(=O)O1 [Compound 169]
1100 to 10000 pM	6520 pM	CC1(C)Cc2nc(Nc3cc4c(C(C)(C)NCCO)cnc(OC5CC5)c4cn3)ccc2C(=O)O1 [Compound 177, 2-((8-Cyclopropoxy-5-(2-((2-hydroxyethyl)amino)propan-2-yl)-2,7-naphthyridin-3-yl)amino)-7,7-dimethyl-7,8-dihydro-5H-pyrano[4,3-b]pyridin-5-one]
310 to 1000 pM	400 pM	C[C@@H]1OC(=O)c2ccc(Nc3cc4c(C(C)(C)N)cnc(OC5(C)CC5)c4cn3)nc2C1(C)C [Compound 186]
< 300 pM	60 pM	CC[C@](C)(N)c1cnc(OC2CC2)c2cnc(Nc3ccc4c(n3)C3(CC3)[C@H](C)OC4=O)cc12 [Compound 187]
< 300 pM	190 pM	COC[C@@](C)(N)c1cnc(OC2CC2)c2cnc(Nc3ccc4c(n3)[C@H](C)[C@H](C)OC4=O)cc12 [Compound 190]
310 to 1000 pM	530 pM	CC[C@@H](N)c1cnc(OC2(C)CC2)c2cnc(Nc3ccc4c(n3)[C@@H](C)C(C)(C)OC4=O)cc12 [Compound 191]
< 300 pM	270 pM	CC(C)(N)c1cnc(OC2CC2)c2cnc(Nc3ccc4c(n3)C3(CC3)C(C)(C)OC4=O)cc12 [Compound 195]
310 to 1000 pM	340 pM	C[C@@H]1OC(=O)c2ccc(Nc3cc4c(C(C)(C)N)cnc(OC5(C)COC5)c4cn3)nc2[C@H]1C [Compound 197]
< 300 pM	270 pM	CC1(Oc2ncc(C(C)(C)N)c3cc(Nc4cnc5c(c4)C(=O)C(C)(C)OC5=O)ncc23)COC1 [Compound 198]
310 to 1000 pM	360 pM	CC1(Oc2ncc(C(C)(C)N)c3cc(Nc4ccc5c(n4)C4(CC4)C(C)(C)OC5=O)ncc23)CC1 [Compound 199]
310 to 1000 pM	480 pM	COC[C@@](C)(N)c1cnc(OC2CC2)c2cnc(Nc3ccc4c(n3)CC(C)(C)OC4=O)cc12 [Compound 200]
< 300 pM	140 pM	COC[C@@](C)(N)c1cnc(OC)c2cnc(Nc3ccc4c(n3)[C@@H](C)C(C)(C)OC4=O)cc12 [Compound 201]
310 to 1000 pM	620 pM	CC[C@@H](N)c1cnc(C)c2cnc(Nc3ccc4c(n3)[C@@H](C)[C@H](C)OC4=O)cc12 [Compound 202]
310 to 1000 pM	500 pM	CC[C@@H](N)c1cnc(OC)c2cnc(Nc3ccc4c(n3)[C@@H](C)[C@H](C)OC4=O)cc12 [Compound 203]
< 300 pM	190 pM	COC[C@@](C)(N)c1cnc(C)c2cnc(Nc3ccc4c(n3)[C@@H](C)C(C)(C)OC4=O)cc12 [Compound 206]
310 to 1000 pM		CC[C@@H](N)c1ccc(Cl)c2cnc(Nc3ccc4c(n3)[C@@H](C)C(C)(C)OC4=O)cc12 [Compound 209]
